Like-named read-outs stand apart in the source and are kept apart here.
Tests used:
NMRI male mice = assay: Hot plate test in mice; assay type: in vivo; settings: sc
Description: Hot plate test in mice Method
A modification of method of Eddy et al. (1953) Eddy, N. B., Leimback D.: Synthetic analgesics II. Dithienylbutenyl and dithienylbutylamines. J. Pharmacol. Exp. Ther. 107 /1953/, 385 to 393 was used. NMRI male mice (20 to 25 g body weight) were dropped on a hot plate (56.0 ± 0.5°C) and the latency time elapsed until licking the forepaws was measured. The compounds were administered subcutaneously and 15, 30, 45 and 60 minutes later the reaction time was measured again. Animals were regarded as positive if they produced at least twice 2.5-fold reaction time extension as related to their control values.

mice [1] = assay: Acetic acid induced writhing test in mice; assay type: in vivo
Description: Acetic acid induced writhing test in mice Method
Groups of 12 mice weighing 20 to 25 g were treated with 0.75% (v/v) acetic acid in a volume of 20 ml/kg administered intraperitoneally according to the method of Koster, R., Anderson, M., de Beer, E. J.: Acetic acid for analgesic screening, Fed. Proc. 18 [1959], 412. Between 5 and 10 minutes after the administration of acetic acid the total number of the typical "writhing" reactions was counted and expressed as percent inhibition compared to the concurrent controls. The test compounds were applied subcutaneously partly with a pretreatment period of 30 min. and partly without such. Statistical evaluation was performed by Student's t test and ID₅₀ values were determined by plotting the log-dose versus percentage response as compared to vehicle-treated animals. 10 mg/kg s.c. 17-(allyl)-4,5α-(epoxy)-3,14-di-(hydroxy)-morphinan-6-one {Naloxone} was administered 15 minutes before drug treatment.

mice [2] = settings: mouse, in vivo, sc, 5 mg/kg
[3] = Mus musculus, hot plate 56.0 ± 0.5°C, subcutaneous, reaction time at 15, 30, 45 and 60 minutes, positive = at least twice 2.5-fold reaction time extension, read-out: ED50

For `Clc1ccc([C@H]2C[C@H]3CC[C@@H]2N3)c(Cl)c1` (racemic) [Example 42, (±)-endo-2β-[1',3'-Di-(chloro)-phen-4'-yl]-7α-azabicyclo[2.2.1]heptane], which ED50 (NMRI male mice; [3]) is on record?
Its ED50 is 1.8 mg/kg.

How did the ED50 (NMRI male mice; [3]) turn out when `Clc1ccc([C@H]2C[C@H]3CC[C@@H]2N3)cc1` (racemic) [Example 19, (±)-endo-2β-[1'-(Chloro)-phen-4'-yl]-7α-azabicyclo[2.2.1]heptane] was run?
The ED50 was 6.3 mg/kg.

`COc1ccc([C@H]2C[C@H]3CC[C@@H]2N3)cn1` (racemic) [Example 26, (±)-endo-2β-[6'-(Methoxy)-pyrid-3'-yl]-7α-azabicyclo[2.2.1]heptane] was tested. Which ED50 (NMRI male mice; [3]) did it give?
The ED50 was 3.1 mg/kg.

With `Clc1ccc([C@H]2C[C@H]3CC[C@@H]2N3)cn1` (racemic) [Example 6, Epi-epibatidine] as the compound, how does the ED50 (NMRI male mice; mouse, in vivo) read?
The ED50 was 0.7 mg/kg s.c.

And the “analgesic potency, times stronger than that of codeine” value (NMRI male mice; mouse, in vivo)?
The value was 13 times.

What about the “analgesic potency, times stronger than that of morphine” value (NMRI male mice; mouse, in vivo) of the same compound?
The value was 4 times.

What about the “ID50 Pretreatment with 10 mg/kg naloxone s.c.” value (mice [1]; mouse, in vivo) of the same compound?
Its value is 3.2 mg/kg s.c.

What about the “ID50 Without pretreatment” value (mice [1]; mouse, in vivo) of the same compound?
Its value is 2.6 mg/kg s.c.

And the “antagonism of the antinociception by naloxone” value (mice [1]; mouse, in vivo)?
The value was “inactive”.

And the lethality in mice (mice [2])?
Its lethality in mice is “does not destroy mice”.

With `c1cncc([C@H]2C[C@H]3CC[C@@H]2N3)c1` (racemic) [Example 33, (±)-endo-2β-[Pyrid-3'-yl]-7α-azabicyclo[2.2.1]heptane] as the compound, how does the ED50 (NMRI male mice; [3]) read?
The ED50 was about 10 mg/kg.

For `CCOc1ccc([C@H]2C[C@H]3CC[C@@H]2N3)cn1` (racemic) [Example 49, (±)-2β-[6'-(Ethoxy)-pyrid-3'-yl]-7α-azabicyclo[2.2.1]heptane], which ED50 (NMRI male mice; [3]) is on record?
Its ED50 is 3.5 mg/kg.

For `Fc1ccc([C@H]2C[C@H]3CC[C@@H]2N3)cc1` (racemic) [Example 12, (±)-endo-2β-[1'-(Fluoro)-phen-4'-yl]-7α-azabicyclo[2.2.1]heptane], which ED50 (NMRI male mice; [3]) is on record?
Its ED50 is 2.1 mg/kg.

Which results are given for `COc1ccc2c3c1O[C@H]1[C@@H](O)C=C[C@H]4[C@@H](C2)N(C)CC[C@@]341.Cl` [Reference substance B, Codeine-HCl]?
ED50 (NMRI male mice; [3]): 9.4 mg/kg; ID50 Pretreatment with 10 mg/kg naloxone s.c. (mice [1]; 0.75% (v/v) acetic acid i.p., naloxone 10 mg/kg s.c. 15 minutes before drug treatment): 45.4 mg/kg s.c.; ED50 (mice [1]; Mus musculus, sc, 0.75% (v/v) acetic acid i.p., writhing counted between 5 and 10 minutes, no naloxone, read-out: ID50 Without pretreatment): 9.9 mg/kg; increase of ID50 value in antinociception after naloxone pretreatment (mice [1]; naloxone 10 mg/kg s.c. for 15 minutes): ~5 fold

With `CN1CC[C@]23c4c5ccc(O)c4O[C@H]2[C@@H](O)C=C[C@H]3[C@H]1C5.Cl` [Reference substance A, Morphine-HCl] as the compound, how does the “ID50 Pretreatment with 10 mg/kg naloxone s.c.” value (mice [1]; mouse, in vivo) read?
The value was 46.8 mg/kg s.c.

What about the “ID50 Without pretreatment” value (mice [1]; mouse, in vivo) of the same compound?
Its value is 0.6 mg/kg s.c.

And the “increase of ID50 value in antinociception after naloxone pretreatment” value (mice [1]; mouse, in vivo)?
Its value is “about 80 fold”.

With `COc1ccc([C@H]2C[C@H]3CC[C@@H]2N3)c(OC)c1` (racemic) [Example 48, (±)-endo-2β-[1',3'-Di-(methoxy)-phen-4'-yl]-7α-azabicyclo[2.2.1]heptane] as the compound, how does the ED50 (NMRI male mice; [3]) read?
Its ED50 is 2.9 mg/kg.
